Laboratory results published in ChEMBL document CHEMBL1156313, “Structure-activity relationship of novel DAPK inhibitors identified by structure-based virtual screening” (Bioorg Med Chem, 2010).
pIC50: −log10 of the molar value.

What was measured:
[1] = molecular target: T1, Death-associated protein kinase 3 (Homo sapiens, UniProt O43293); assay: Inhibition of human recombinant DAPK3 at 10 uM
Target sequence in this assay (O43293 whole entry, looked up): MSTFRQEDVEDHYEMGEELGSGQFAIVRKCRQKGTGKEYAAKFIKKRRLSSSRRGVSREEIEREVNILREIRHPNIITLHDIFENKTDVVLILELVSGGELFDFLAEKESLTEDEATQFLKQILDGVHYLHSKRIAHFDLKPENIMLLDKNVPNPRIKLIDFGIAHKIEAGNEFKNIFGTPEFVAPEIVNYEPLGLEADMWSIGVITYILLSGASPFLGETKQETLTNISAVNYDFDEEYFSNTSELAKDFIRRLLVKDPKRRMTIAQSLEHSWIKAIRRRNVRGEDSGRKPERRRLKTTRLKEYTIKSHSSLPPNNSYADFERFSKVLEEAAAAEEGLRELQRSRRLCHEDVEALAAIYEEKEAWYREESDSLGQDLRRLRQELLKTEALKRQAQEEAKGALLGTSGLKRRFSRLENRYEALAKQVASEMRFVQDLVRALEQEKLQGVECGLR

[2] = molecular target: Death-associated protein kinase 1 (Homo sapiens) (UniProt P53355); assay: Inhibition of DAPK1 at 10 uM
Sequence of Death-associated protein kinase 1 (Homo sapiens) (P53355 whole entry, looked up): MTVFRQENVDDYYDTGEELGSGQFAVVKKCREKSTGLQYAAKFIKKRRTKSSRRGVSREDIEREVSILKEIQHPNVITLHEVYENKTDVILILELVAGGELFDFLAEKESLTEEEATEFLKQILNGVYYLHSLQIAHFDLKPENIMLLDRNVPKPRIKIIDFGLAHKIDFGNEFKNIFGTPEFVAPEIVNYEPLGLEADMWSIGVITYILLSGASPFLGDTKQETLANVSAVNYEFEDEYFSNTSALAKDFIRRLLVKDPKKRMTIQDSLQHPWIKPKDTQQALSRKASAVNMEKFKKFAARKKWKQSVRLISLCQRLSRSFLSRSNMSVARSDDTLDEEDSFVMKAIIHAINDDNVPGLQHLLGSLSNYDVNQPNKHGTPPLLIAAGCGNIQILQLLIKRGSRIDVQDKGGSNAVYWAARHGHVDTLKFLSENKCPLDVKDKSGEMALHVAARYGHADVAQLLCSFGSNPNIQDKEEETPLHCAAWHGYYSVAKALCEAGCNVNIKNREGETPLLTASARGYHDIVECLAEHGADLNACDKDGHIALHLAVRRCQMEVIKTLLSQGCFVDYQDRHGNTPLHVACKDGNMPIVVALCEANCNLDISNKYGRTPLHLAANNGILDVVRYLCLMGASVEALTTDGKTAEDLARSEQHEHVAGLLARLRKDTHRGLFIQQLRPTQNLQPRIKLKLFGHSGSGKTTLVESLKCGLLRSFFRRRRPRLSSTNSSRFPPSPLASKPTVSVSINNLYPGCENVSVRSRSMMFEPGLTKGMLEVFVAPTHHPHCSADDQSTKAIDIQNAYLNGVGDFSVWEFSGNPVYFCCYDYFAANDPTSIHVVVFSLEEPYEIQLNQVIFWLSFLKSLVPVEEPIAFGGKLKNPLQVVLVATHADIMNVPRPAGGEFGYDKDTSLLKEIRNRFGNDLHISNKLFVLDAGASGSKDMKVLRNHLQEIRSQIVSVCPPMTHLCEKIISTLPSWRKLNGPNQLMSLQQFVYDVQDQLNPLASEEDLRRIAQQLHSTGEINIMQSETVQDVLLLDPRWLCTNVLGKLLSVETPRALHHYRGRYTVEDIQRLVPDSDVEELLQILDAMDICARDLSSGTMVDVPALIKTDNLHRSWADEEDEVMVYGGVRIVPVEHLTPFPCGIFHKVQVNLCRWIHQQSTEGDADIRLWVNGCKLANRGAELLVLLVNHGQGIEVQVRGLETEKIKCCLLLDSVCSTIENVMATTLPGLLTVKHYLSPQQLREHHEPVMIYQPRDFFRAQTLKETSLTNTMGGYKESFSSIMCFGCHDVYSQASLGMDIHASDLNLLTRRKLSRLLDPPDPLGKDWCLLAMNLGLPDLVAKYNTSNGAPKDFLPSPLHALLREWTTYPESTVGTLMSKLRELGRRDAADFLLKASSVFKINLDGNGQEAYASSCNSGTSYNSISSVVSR

[3] = molecular target: MAP kinase-activated protein kinase 2 (Homo sapiens) (UniProt P49137); assay: Inhibition of MAPKAPK2 at 10 uM
[4] = molecular target: T2, Aurora kinase A (Homo sapiens) (UniProt O14965); assay: Inhibition of Aurora A at 10 uM
T2 sequence (whole entry): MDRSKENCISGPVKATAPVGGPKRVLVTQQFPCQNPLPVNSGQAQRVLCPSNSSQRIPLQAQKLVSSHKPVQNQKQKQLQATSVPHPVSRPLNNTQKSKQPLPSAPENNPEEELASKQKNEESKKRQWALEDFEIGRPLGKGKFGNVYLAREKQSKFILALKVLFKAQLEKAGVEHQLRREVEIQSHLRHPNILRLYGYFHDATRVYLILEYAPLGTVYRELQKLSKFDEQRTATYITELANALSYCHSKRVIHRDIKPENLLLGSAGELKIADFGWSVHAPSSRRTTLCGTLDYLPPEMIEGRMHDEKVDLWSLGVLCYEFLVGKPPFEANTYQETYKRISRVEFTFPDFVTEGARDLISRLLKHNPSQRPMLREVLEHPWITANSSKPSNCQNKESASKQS

[5] = molecular target: T3, Protein kinase C zeta type (Homo sapiens) (UniProt Q05513); assay: Inhibition of PKCzeta at 10 uM
T3 sequence (whole entry): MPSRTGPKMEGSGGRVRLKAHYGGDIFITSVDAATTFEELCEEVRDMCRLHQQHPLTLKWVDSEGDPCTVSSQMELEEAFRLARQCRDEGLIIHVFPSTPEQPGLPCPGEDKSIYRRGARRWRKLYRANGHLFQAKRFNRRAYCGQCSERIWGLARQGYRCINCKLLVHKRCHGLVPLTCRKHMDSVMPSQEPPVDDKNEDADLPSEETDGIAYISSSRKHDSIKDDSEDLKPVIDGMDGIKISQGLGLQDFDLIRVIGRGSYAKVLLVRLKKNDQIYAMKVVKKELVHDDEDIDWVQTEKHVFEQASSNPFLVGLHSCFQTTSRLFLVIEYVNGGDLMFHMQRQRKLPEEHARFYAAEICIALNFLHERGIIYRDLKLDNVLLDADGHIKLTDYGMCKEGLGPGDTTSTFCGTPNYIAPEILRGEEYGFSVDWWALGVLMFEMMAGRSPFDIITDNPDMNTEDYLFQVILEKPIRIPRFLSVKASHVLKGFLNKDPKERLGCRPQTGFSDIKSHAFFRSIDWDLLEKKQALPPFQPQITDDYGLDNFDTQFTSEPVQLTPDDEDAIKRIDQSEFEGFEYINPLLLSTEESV

[6] = molecular target: Ribosomal protein S6 kinase alpha-1 (Homo sapiens) (UniProt Q15418); assay: Inhibition of RSK1 at 10 uM
Sequence of Ribosomal protein S6 kinase alpha-1 (Homo sapiens) (Q15418 whole entry): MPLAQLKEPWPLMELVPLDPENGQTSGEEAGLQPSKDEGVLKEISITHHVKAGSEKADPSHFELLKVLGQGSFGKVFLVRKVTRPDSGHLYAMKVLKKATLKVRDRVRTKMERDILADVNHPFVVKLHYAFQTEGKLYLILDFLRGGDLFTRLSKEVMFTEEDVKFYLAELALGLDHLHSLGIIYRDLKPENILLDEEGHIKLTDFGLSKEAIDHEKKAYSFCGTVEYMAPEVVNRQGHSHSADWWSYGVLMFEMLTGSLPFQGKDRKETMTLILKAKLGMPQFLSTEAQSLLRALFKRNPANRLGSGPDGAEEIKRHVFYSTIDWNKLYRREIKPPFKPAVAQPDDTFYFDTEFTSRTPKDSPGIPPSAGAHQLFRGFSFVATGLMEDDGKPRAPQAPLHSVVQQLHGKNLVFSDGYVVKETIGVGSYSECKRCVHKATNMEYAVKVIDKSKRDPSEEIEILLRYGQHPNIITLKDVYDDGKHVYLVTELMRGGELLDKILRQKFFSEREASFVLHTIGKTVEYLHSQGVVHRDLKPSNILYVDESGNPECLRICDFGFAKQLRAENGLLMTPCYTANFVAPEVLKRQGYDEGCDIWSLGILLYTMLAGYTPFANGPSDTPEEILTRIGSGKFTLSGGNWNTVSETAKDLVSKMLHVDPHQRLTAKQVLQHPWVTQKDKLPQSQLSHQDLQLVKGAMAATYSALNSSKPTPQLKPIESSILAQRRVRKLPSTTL

[7] = molecular target: MAP kinase-activated protein kinase 5 (Homo sapiens) (UniProt Q8IW41); assay: Inhibition of PRAK at 10 uM
[8] = molecular target: Mitogen-activated protein kinase 3 (Homo sapiens) (UniProt P27361); assay: Inhibition of ERK1 at 10 uM
[9] = molecular target: T4, Serine/threonine-protein kinase Chk1 (Homo sapiens) (UniProt O14757); assay: Inhibition of CHK1 at 10 uM
T4 sequence (whole entry): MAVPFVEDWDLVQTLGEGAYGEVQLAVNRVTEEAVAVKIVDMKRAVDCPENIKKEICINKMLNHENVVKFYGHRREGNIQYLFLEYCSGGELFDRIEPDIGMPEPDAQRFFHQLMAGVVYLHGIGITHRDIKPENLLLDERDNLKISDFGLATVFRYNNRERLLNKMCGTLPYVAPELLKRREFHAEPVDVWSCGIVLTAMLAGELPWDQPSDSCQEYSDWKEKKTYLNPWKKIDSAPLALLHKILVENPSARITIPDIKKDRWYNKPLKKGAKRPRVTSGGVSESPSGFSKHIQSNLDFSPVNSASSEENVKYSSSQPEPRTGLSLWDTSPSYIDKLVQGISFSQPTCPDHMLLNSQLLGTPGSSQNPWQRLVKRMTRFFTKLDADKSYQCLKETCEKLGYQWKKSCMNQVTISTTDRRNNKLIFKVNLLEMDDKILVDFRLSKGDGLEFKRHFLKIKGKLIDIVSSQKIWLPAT

[10] = molecular target: Tyrosine-protein kinase ABL1 (Homo sapiens) (UniProt P00519); assay: Inhibition of ABL at 10 uM
[11] = molecular target: Tyrosine-protein kinase Fyn (Homo sapiens) (UniProt P06241); assay: Inhibition of FYN at 10 uM
[12] = molecular target: Tyrosine-protein kinase Lyn (Homo sapiens) (UniProt P07948); assay: Inhibition of LYN at 10 uM
[13] = molecular target: Serine/threonine-protein kinase Chk2 (Homo sapiens) (UniProt O96017); assay: Inhibition of CHK2 at 10 uM
Sequence of Serine/threonine-protein kinase Chk2 (Homo sapiens) (O96017 whole entry): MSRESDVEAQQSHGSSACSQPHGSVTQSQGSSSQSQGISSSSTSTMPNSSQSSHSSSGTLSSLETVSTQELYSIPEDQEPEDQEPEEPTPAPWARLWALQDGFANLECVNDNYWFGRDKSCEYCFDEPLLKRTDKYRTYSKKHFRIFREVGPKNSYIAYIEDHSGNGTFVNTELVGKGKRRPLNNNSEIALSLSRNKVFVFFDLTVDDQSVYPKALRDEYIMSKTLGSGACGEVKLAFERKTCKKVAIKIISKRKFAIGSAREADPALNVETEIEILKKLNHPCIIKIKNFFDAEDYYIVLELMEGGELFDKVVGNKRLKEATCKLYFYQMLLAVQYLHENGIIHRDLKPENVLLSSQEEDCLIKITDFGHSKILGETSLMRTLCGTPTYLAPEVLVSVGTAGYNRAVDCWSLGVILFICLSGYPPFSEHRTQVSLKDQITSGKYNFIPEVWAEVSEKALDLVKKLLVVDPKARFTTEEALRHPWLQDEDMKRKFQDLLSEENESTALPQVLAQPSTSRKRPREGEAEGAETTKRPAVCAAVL

[14] = molecular target: Hepatocyte growth factor receptor (Homo sapiens) (UniProt P08581); assay: Inhibition of MET at 10 uM
[15] = molecular target: Tyrosine-protein kinase Lck (Homo sapiens) (UniProt P06239); assay: Inhibition of LCK at 10 uM
Sequence of Tyrosine-protein kinase Lck (Homo sapiens) (P06239 2-509 limits assumed): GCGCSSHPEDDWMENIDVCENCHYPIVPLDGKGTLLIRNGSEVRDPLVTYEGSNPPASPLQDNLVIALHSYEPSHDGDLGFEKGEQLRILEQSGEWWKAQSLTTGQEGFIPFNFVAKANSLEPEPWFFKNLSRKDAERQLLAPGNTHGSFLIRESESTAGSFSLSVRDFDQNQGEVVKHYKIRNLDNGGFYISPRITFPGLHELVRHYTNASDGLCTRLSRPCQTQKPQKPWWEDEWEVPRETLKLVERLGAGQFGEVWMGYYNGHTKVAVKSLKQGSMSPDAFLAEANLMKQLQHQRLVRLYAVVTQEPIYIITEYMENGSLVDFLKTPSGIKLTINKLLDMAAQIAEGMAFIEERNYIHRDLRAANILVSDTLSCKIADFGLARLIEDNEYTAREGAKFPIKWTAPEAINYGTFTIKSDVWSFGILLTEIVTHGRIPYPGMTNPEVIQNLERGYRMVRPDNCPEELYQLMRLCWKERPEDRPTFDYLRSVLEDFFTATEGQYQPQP

[16] = molecular target: Proto-oncogene tyrosine-protein kinase Src (Homo sapiens) (UniProt P12931); assay: Inhibition of SRC at 10 uM
[17] = molecular target: Glycogen synthase kinase-3 beta (Homo sapiens) (UniProt P49841); assay: Inhibition of GSK3-beta at 10 uM
Sequence of Glycogen synthase kinase-3 beta (Homo sapiens) (P49841 whole entry, looked up): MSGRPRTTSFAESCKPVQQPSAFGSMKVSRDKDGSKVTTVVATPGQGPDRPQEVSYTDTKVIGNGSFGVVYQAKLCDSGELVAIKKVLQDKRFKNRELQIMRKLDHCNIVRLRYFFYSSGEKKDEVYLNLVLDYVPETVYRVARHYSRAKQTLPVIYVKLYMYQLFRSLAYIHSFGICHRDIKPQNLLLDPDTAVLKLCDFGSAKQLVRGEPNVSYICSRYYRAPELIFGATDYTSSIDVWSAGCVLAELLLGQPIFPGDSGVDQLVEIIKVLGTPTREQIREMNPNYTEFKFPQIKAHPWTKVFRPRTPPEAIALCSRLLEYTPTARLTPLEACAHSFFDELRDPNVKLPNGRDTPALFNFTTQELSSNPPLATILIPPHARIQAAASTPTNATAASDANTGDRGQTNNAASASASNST

[18] = molecular target: Mitogen-activated protein kinase 1 (Homo sapiens) (UniProt P28482); assay: Inhibition of ERK2 at 10 uM
[19] = molecular target: RAC-beta serine/threonine-protein kinase (Homo sapiens) (UniProt P31751); assay: Inhibition of AKT2 at 10 uM
[20] = molecular target: Insulin receptor (Homo sapiens) (UniProt P06213); assay: Inhibition of INSR at 10 uM
[21] = molecular target: Mitogen-activated protein kinase 14 (Homo sapiens) (UniProt Q16539); assay: Inhibition of P38alpha at 10 uM
Sequence of Mitogen-activated protein kinase 14 (Homo sapiens) (Q16539 whole entry): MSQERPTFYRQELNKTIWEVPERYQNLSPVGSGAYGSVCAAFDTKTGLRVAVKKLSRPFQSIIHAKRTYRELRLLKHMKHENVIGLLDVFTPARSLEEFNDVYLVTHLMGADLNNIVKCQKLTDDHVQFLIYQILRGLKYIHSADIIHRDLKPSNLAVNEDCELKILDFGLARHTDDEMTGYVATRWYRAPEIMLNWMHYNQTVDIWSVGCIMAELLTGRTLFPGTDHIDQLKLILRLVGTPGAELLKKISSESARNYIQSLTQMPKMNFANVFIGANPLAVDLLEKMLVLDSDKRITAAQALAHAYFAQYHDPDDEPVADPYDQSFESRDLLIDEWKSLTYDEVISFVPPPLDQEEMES

[22] = molecular target: RAC-alpha serine/threonine-protein kinase (Homo sapiens) (UniProt P31749); assay: Inhibition of AKT1 at 10 uM
Sequence of RAC-alpha serine/threonine-protein kinase (Homo sapiens) (P31749 whole entry): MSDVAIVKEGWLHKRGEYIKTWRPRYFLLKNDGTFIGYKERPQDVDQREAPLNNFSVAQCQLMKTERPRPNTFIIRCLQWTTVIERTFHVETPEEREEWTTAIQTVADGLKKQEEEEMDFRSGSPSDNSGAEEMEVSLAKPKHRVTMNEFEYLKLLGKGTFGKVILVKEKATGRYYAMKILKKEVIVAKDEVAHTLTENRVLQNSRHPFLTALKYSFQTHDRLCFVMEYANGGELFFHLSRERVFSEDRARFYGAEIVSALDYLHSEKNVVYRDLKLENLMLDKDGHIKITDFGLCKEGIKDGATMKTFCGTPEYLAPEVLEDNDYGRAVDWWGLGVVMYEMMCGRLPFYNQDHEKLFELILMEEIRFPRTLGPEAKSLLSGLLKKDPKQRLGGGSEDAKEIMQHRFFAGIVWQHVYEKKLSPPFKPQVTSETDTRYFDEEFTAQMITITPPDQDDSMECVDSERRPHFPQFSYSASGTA

[23] = molecular target: Ribosomal protein S6 kinase alpha-5 (Homo sapiens) (UniProt O75582); assay: Inhibition of MSK1 at 10 uM
[24] = molecular target: T1, Death-associated protein kinase 3; assay: Inhibition of human recombinant DAPK3 at 1 uM
Target sequence in this assay (O43293 whole entry, looked up): as the sequence (O43293 whole entry, looked up) above

[25] = molecular target: T1, Death-associated protein kinase 3; assay: Inhibition of human recombinant DAPK3
Target sequence in this assay (O43293 whole entry): as the sequence (O43293 whole entry, looked up) above

[26] = molecular target: T5, Serine/threonine-protein kinase D2 (Homo sapiens) (UniProt Q9BZL6); assay: Inhibition of PKD2 at 10 uM
T5 sequence (whole entry): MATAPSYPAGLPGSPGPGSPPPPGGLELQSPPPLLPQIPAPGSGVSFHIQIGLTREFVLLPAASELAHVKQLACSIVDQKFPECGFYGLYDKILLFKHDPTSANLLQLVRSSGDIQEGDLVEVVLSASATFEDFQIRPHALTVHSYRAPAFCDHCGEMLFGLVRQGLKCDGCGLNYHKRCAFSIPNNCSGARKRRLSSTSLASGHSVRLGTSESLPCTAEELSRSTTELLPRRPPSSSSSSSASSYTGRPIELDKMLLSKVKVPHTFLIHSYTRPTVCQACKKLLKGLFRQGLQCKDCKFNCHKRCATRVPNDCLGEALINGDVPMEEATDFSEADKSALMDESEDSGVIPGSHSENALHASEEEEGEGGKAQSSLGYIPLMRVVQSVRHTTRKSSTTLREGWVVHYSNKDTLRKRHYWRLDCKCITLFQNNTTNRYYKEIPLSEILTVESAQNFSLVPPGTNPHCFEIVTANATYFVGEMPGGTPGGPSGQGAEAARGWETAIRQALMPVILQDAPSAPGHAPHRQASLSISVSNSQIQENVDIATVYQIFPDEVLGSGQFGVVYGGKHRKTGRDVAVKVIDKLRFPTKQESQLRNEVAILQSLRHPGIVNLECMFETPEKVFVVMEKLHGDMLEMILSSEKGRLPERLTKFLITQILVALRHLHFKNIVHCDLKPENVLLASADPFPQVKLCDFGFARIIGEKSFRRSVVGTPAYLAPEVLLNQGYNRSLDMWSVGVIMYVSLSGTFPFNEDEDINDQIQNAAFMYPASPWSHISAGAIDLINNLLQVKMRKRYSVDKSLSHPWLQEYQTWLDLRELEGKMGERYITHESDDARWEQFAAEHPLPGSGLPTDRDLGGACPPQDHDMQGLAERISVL

[27] = Inhibition of PKA at 10 uM

inhibition [4] [%] | inhibition [5] [%] | inhibition [6] [%] | inhibition [8] [%] | inhibition [9] [%] | inhibition [13] [%] | inhibition [15] [%] | inhibition [16] [%] | inhibition [17] [%] | inhibition [18] [%] | inhibition [19] [%] | inhibition [21] [%] | inhibition [22] [%] | inhibition [23] [%] | SMILES | inhibition [1] [%] | inhibition [2] [%] | also measured
14 | 3 | 4 | 7 | 12 | 17 | 8 | 5 | 3 | 20 | 17 | 8 | 15 | 13 | O=C1OC(/C=C/c2ccccc2)=NC/1=C\c1cccnc1 | 100 | 91 | inhibition [3]: 46%; inhibition [7]: 5%; inhibition [10]: 9%; inhibition [11]: 1%; inhibition [12]: 1%; inhibition [14]: 3%; inhibition [20]: 4%
15 | -3 | 10 | 25 | 12 | 24 | 8 | 3 | 7 | 10 | 17 | 2 | 13 | 0 | O=C1OC(c2ccc(Cl)cc2)=N/C1=C\c1cccnc1 | 96 | 76 | inhibition [24]: 85%; pIC50 [25]: 6.28; inhibition [26]: 17%; inhibition [27]: 9%
